In ChEMBL document CHEMBL1153296, “Design and synthesis of novel tri-aryl CB2 selective cannabinoid ligands” (Bioorg Med Chem Lett, 2009) one finds Ratio Ki and Ki data, which are given here for five molecules.

For experiment [1], the species on record is Homo sapiens. As to the kind of experiment: Selectivity ratio of Ki for human CB1 receptor to Ki for human CB2 receptor.
Experiment [2] deals with Cannabinoid receptor 1 (Homo sapiens, UniProt P21554). As to the kind of experiment: Binding affinity to human CB1 receptor transfected in HEK293 cells. Format: cell-based.
In experiment [3] the target is Cannabinoid receptor 2 (Homo sapiens, UniProt P34972). As to the kind of experiment: Binding affinity to human CB2 receptor transfected in HEK293 cells. Format: cell-based.
Chain of Cannabinoid receptor 2 (P34972 whole entry): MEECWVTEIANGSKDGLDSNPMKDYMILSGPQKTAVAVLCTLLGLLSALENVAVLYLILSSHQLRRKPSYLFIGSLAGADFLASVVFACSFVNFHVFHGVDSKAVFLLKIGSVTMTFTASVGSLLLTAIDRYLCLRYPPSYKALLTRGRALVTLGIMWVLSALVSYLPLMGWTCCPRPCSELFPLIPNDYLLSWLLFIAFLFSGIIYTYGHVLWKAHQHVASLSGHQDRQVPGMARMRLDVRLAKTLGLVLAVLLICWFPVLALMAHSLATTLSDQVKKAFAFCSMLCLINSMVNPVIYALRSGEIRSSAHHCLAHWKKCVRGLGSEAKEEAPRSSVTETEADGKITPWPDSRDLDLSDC

Chain of Cannabinoid receptor 1 (P21554 whole entry): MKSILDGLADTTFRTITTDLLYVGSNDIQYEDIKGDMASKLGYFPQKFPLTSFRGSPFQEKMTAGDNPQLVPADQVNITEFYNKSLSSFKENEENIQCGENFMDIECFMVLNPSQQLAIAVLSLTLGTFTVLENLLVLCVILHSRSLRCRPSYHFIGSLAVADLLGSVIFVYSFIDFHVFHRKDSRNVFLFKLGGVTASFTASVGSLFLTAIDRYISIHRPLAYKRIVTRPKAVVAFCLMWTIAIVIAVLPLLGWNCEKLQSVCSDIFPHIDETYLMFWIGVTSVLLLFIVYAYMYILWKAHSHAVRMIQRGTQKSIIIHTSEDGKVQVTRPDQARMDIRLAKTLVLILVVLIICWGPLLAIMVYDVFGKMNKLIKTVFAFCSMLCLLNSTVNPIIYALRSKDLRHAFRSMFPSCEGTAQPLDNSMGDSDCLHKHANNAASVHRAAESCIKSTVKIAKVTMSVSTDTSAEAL

As for `O=C(c1ccccc1)c1cc(O)c(-c2cc(Cl)cc(Cl)c2)c(O)c1`, the Ratio Ki in experiment [1] stood at 9.2.

With `COc1cc(C(O)c2ccccc2)cc(OC)c1-c1cc(Cl)cc(Cl)c1` (centres undefined), in experiment [2], the inhibitory constant (Ki) – broadly, the dissociation constant of the complex between target and ligand, obtained from inhibition or displacement – was more than 1000 nM. Further, the Ratio Ki in experiment [1] was found to be 602.

As for `CC(C)(c1ccccc1)c1cc(O)c(-c2cc(Cl)cc(Cl)c2)c(O)c1`, the Ki stood at 93.7 nM in experiment [2] and 1.07 nM in experiment [3]. Also, in experiment [1], the Ratio Ki came to 87.5.

For `CC1=CC[C@@H]2[C@@H](C1)c1c(O)cc(C(C)(C)c3ccccc3)cc1OC2(C)C`, the Ratio Ki in experiment [1] stood at 13.5.

`COc1cc(C(=O)c2ccccc2)cc(O)c1-c1cc(Cl)cc(Cl)c1`: in experiment [2], the Ki is more than 1000 nM. Also, in experiment [1], the Ratio Ki was found to be 210.
